From publication PMC4914680 (Antimicrobial Agents and Chemotherapy, 2016)
Entries after “also recorded” stand apart in the source; their conditions may differ. Read-outs that look alike come from different tables or passages of the source.

Tests used:
[1] = test system: V370M virus (recombinant virus with gag/pr genes from a clinical isolate); assay: microbe, parasite or virus in culture; type: cell-based, HIV-1; conditions: Human immunodeficiency virus 1, MT2, read-out: EC50 (SD)
[2] = test system: INI (140S, 148H) resistant virus (NLRepRluc-G140S/Q148H); type: cell-based, HIV-1
HIV-1 NL4-3 = assay: Time-of-addition study, NL4-3-infected B6 cells; type: cell-based; conditions: single cycle; for time postinfection at which effectiveness begins to be lost: >100-fold EC50; for effect on luciferase signal by time of addition: 24 h postinfection
[3] = test system: PI (46I, 82F, 84V, 90 M) resistant virus; type: cell-based, HIV-1
[4] = test system: NRTI (184V) resistant virus (LAI M184V); type: cell-based, HIV-1
[5] = test system: HIV-1 NL4-3 ΔV370 variant (NLRepRlucP373S/Δ370); type: cell-based
HIV-1 Gag (WT LAI VLPs) = HIV-1 Gag (WT LAI VLPs) (Human immunodeficiency virus type 1 group M subtype B, UniProt P03348); assay: [3H]BMS-955176-Gag binding (SPA); conditions: raltegravir at 10 μM; data not shown
[6] = test system: NNRTI (103N, 181C) resistant virus; type: cell-based, HIV-1
[7] = test system: HIV-LAI envelope-pseudotyped RepRlucP373SΔenv virus; assay: Two-stage single-cycle pseudotype assay (HIV-1 entry assay); type: cell-based
HIV-1 gp160 = target: T1, HIV-1 gp160 (Human immunodeficiency virus type 1 group M subtype B, UniProt P04578); assay: HIV-1 cell fusion assay; type: cell-based
T1 construct: expressed in transfected cells; host or cells: NL-TOE donor cells (target cells: HeLa C14)

[8] = test system: NRTI (41L, 67N, 215F, 219E, 69N), AZT-resistant virus 7324-1; type: cell-based, HIV-1
[9] = test system: PI (54V, 82A, 84V 84V) resistant virus; type: cell-based, HIV-1
[10] = test system: subtype B gag/pr recombinant viruses; assay: Multiple-cycle Gag/Pr phenotyping assay; type: cell-based, HIV-1
[11] = target: WT HIV-1 VLPs, p25 to p24 (CA/SP1) cleavage (Human immunodeficiency virus type 1 group M subtype B, UniProt P03348); assay: HIV-1 VLP protease cleavage assay; type: biochemical; conditions: Western blot
[12] = Human immunodeficiency virus 1, NL43, MT2
[13] = Human immunodeficiency virus 1, NL43, MT2, read-out: EC50 (SD)
[14] = Human immunodeficiency virus 1, read-out: EC50 (mean), sublibrary, None (WT), n=21
[15] = Human immunodeficiency virus 1, read-out: EC50 (mean), sublibrary, T371A/Q/N/S/TT, n=4
[16] = Human immunodeficiency virus 1, read-out: EC50 (mean), sublibrary, V362I, n=3
[17] = Human immunodeficiency virus 1, read-out: EC50 (mean), sublibrary, V370A + ΔT371, n=3
[18] = Human immunodeficiency virus 1, read-out: EC50 (mean), sublibrary, V370A, n=3
[19] = Human immunodeficiency virus 1, read-out: EC50 (mean), sublibrary, V370I/L/T, n=3
[20] = Human immunodeficiency virus 1, read-out: EC50 (mean), sublibrary, V370 M, n=5

Cc1nnc(C(=O)NC(C)(C)c2nc(C(=O)NCc3ccc(F)cc3)c(O)c(=O)n2C)o1 [Raltegravir]
EC50 [1]: 3.3 nM | Fold change in EC50 (SD) relative to parental strain [2]: >340 (72) | time postinfection at which effectiveness begins to be lost (HIV-1 NL4-3): 8 h | Fold change in EC50 (SD) relative to parental strain [3]: 0.18 (0.07) | Fold change in EC50 (SD) relative to parental strain [4]: 1.9 (0.6) | EC50 [5, 12]: 3.4 nM | competition for the binding of [3H]BMS-955176 (HIV-1 Gag (WT LAI VLPs)): did not compete | Fold change in EC50 (SD) relative to parental strain [6]: 1.8 (0.4)

COc1ccnc2[nH]cc(C(=O)C(=O)N3CCN(C(=O)c4ccccc4)C[C@H]3C)c12 [BMS-378806]
effect on luciferase signal by time of addition (HIV-1 NL4-3): fully inhibitory (0% of control) only when added at the time of infection | time postinfection at which effectiveness begins to be lost (HIV-1 NL4-3): ≤ 4 h | inhibition of luciferase, compound added at stage 1 (virus production) [7]: inhibitory when added at either stage 1 or 2 | inhibition of luciferase, compound added at stage 2 (infection) [7]: inhibitory when added at either stage 1 or 2 | EC50 (HIV-1 gp160; cell-cell fusion, luciferase, read-out: EC50): 0.9 nM

C=C(C)[C@@H]1CC[C@]2(C(=O)O)CC[C@]3(C)[C@H](CC[C@@H]4[C@@]5(C)CC=C(c6ccc(C(=O)O)cc6)C(C)(C)[C@@H]5CC[C@]43C)[C@@H]12 [BMS-1]
EC50 [5, 13]: > 6000 nM

Cc1cc(/C=C/C#N)cc(C)c1Nc1ccnc(Nc2ccc(C#N)cc2)n1 [Rilpivirine]
Fold change in EC50 (SD) relative to parental strain [2]: 1.0 (0.5) | Fold change in EC50 (SD) relative to parental strain [3]: 2.6 (0.8) | Fold change in EC50 (SD) relative to parental strain [4]: 2.0 (0.3) | Fold change in EC50 (SD) relative to parental strain [6]: 8.1 (1.5)

Nc1ccn([C@@H]2CS[C@H](CO)O2)c(=O)n1 [Lamivudine]
EC50 [5, 12]: 470 nM

Cc1cn([C@H]2C[C@H](N=[N+]=[N-])[C@@H](CO)O2)c(=O)[nH]c1=O [Zidovudine]
Fold change in EC50 (SD) relative to parental strain [2]: 0.82 (0.41) | Fold change in EC50 (SD) relative to parental strain [4]: 0.78 (0.03) | Fold change in EC50 (SD) relative to parental strain [8]: 79 (5) | Fold change in EC50 (SD) relative to parental strain [6]: 1.03 (0.17)

COC(=O)N[C@H](C(=O)N[C@@H](Cc1ccccc1)[C@@H](O)CN(Cc1ccc(-c2ccccn2)cc1)NC(=O)[C@@H](NC(=O)OC)C(C)(C)C)C(C)(C)C [Atazanavir]
Fold change in EC50 (SD) relative to parental strain [9]: 39 | EC50 [1]: 2.3 nM | Fold change in EC50 (SD) relative to parental strain [2]: 1.0 (0.21) | Fold change in EC50 (SD) relative to parental strain [4]: 1.1 (0.1) | Fold change in EC50 (SD) relative to parental strain [8]: 2.27 (0.02) | EC50 [5, 12]: 3.8 nM | Fold change in EC50 (SD) relative to parental strain [6]: 0.93 (0.03)

Cc1ccnc2c1NC(=O)c1cccnc1N2C1CC1 [Nevirapine]
EC50 [1]: 930 nM | Fold change in EC50 (SD) relative to parental strain [2]: 0.89 (0.59) | Fold change in EC50 (SD) relative to parental strain [3]: 0.83 (0.08) | Fold change in EC50 (SD) relative to parental strain [4]: 1.3 (0.2) | Fold change in EC50 (SD) relative to parental strain [8]: 1.6 (0.2) | EC50 [5, 12]: 170 nM | Fold change in EC50 (SD) relative to parental strain [6]: >131 (108)

O=C1Nc2ccc(Cl)cc2[C@@](C#CC2CC2)(C(F)(F)F)O1 [Efavirenz]
Fold change in EC50 (SD) relative to parental strain [9]: 1.4 | Fold change in EC50 (SD) relative to parental strain [2]: 0.60 (0.3) | time postinfection at which effectiveness begins to be lost (HIV-1 NL4-3): 6 h | Fold change in EC50 (SD) relative to parental strain [3]: 0.20 (0.01) | Fold change in EC50 (SD) relative to parental strain [4]: 1.0 (0.1) | Fold change in EC50 (SD) relative to parental strain [6]: 55 (2.2)

C=C(C)[C@@H]1CC[C@]2(C(=O)NCCc3ccccn3)CC[C@]3(C)[C@H](CC[C@@H]4[C@@]5(C)CC=C(c6ccc(C(=O)O)cc6)C(C)(C)[C@@H]5CC[C@]43C)[C@@H]12 [BMS-2]
EC50 [10, 14]: 14 nM | EC50 [10, 15]: 49 nM | EC50 [10, 16]: 29 nM | EC50 [10, 17]: 629 nM | EC50 [10, 18]: 38 nM | EC50 [10, 19]: 26 nM | EC50 [10, 20]: 76 nM | EC50 [5, 13]: 415 nM

C=C(C)[C@@H]1CC[C@]2(C(=O)O)CC[C@]3(C)[C@H](CC[C@@H]4[C@@]5(C)CC[C@H](OC(=O)CC(C)(C)C(=O)O)C(C)(C)[C@@H]5CC[C@]43C)[C@@H]12 [BVM, 3-O-(3′,3′-dimethylsuccinyl)betulinic acid, reference compound]
inhibition of conversion of VLP p25 to p24 [11]: inhibited the conversion of HIV-1 WT VLP p25 to p24 in a dose-dependent manner | EC50 [10, 14]: 14 nM | EC50 [10, 15]: 113 nM | EC50 [10, 16]: 36 nM | EC50 [10, 17]: > 4000 nM | EC50 [10, 18]: 227 nM | EC50 [10, 19]: 251 nM | EC50 [10, 20]: 903 nM | effect on luciferase signal by time of addition (HIV-1 NL4-3): had no effect when added at any time point | inhibition of luciferase, compound added at stage 1 (virus production) [7]: inhibiting luciferase production only when added in the first stage; also recorded: does not attain complete inhibition relative to NFV | inhibition of luciferase, compound added at stage 2 (infection) [7]: inhibiting luciferase production only when added in the first stage | EC50 [5, 12]: ≥ 10000 nM | EC50 [5, 13]: > 10000 nM | competition for the binding of [3H]BMS-955176 (HIV-1 Gag (WT LAI VLPs)): A similar result was obtained by displacement

Cc1c(O)cccc1C(=O)N[C@@H](CSc1ccccc1)[C@H](O)CN1C[C@H]2CCCC[C@H]2C[C@H]1C(=O)NC(C)(C)C [NFV]
effect on luciferase signal by time of addition (HIV-1 NL4-3): had no effect when added at any time point | inhibition of luciferase, compound added at stage 1 (virus production) [7]: luciferase activity was inhibited | inhibition of luciferase, compound added at stage 2 (infection) [7]: luciferase production was not inhibited | EC50 [5, 12]: 5 nM | EC50 (HIV-1 gp160): > 2000 nM

C[C@H](Cn1cnc2c(N)ncnc21)OCP(=O)(O)O [Tenofovir]
EC50 [1]: 5 nM | EC50 [5, 12]: 7.2 nM

CC(C)CN(C[C@@H](O)[C@H](Cc1ccccc1)NC(=O)O[C@H]1CO[C@H]2OCC[C@H]21)S(=O)(=O)c1ccc(N)cc1 [Darunavir]
Fold change in EC50 (SD) relative to parental strain [9]: 2.3 | EC50 [1]: 2.3 nM | Fold change in EC50 (SD) relative to parental strain [2]: 1.1 (0.1) | Fold change in EC50 (SD) relative to parental strain [3]: 41 (1.9) | Fold change in EC50 (SD) relative to parental strain [4]: 1.2 (0.4) | EC50 [5, 12]: 4.5 nM | Fold change in EC50 (SD) relative to parental strain [6]: 0.90 (0.1)

C=C(C)[C@@H]1CC[C@]2(C(=O)NCCN(C)C)CC[C@]3(C)[C@H](CC[C@@H]4[C@@]5(C)CC=C(c6ccc(C(=O)O)cc6)C(C)(C)[C@@H]5CC[C@]43C)[C@@H]12 [BMS-3]
EC50 [5, 13]: 31 nM
